Laboratory results published in EP0388909A2, “Thiazole compounds, processes for the preparation thereof and pharmaceutical composition comprising the same” (FUJISAWA PHARMACEUTICAL CO., LTD., priority 1989, dated 1990).
Where a name gives a salt, the structure may show the parent alone. Blank lines part the entries; values can stand above or below the compound they belong to.

Key:
[1] = tested on: human washed platelets; assay: Thrombin induced aggregation in human washed platelets; format: cell-based; conditions: Concentration 1.0 x 10⁻⁵ M; thrombin final conc. 0.3-0.5 U/ml
Procedure: Blood was drawn from healthy volunteers into a plastic tube containing 1/10 volume of 3.8% sodium citrate and centrifuged at 120 g for 10 minutes to obtain platelet rich plasma (PRP). An equal volume of 25 mM Tris-HCl buffer (pH 7.4) containing 130 mM NaCl and 1.5 mM EDTA (buffer A) was added to the PRP, mixed and centrifuged at 1500 g for 10 minutes. The platelet pellet was suspended in buffer A and centrifuged at 1500 g for 5 minutes. The platelets were resuspended in 25 mM Tris-HCl buffer (pH 7.4) containing 130 mM NaCl and 0.3 mM EDTA and recentrifuged at 1500 g for 5 minutes. The platelets were finally suspended in Tyrode solution containing 0.3 % bovine serum albumin and the platelet count was adjusted to 3 x 10⁸/ml. To 247.5 µl of platelet suspension, 2.5 µl of drug solution was added and incubated for 2 minutes at 37°C prior to addition of thrombin solution (final conc. 0.3-0.5 U/ml). Platelet aggregation was turbidometrically measured using a HEMA-TRACER 1.

[2] = tested on: PRP; assay: Platelet aggregation ex vivo (arachidonic acid induced, PRP after oral dosing); format: in vivo; conditions: Cavia porcellus, 6 h, Dose 1.0 mg/kg oral, blood collected six hours after administration, arachidonic acid final 50 µM as aggregation inducer, male Hartley guinea-pigs
Procedure: Male Hartley guinea-pigs weighing about 300 g were used after 24 hours fasting. Six hours after oral administration of the test compound or vehicle of test compound (control), blood was collected into a tube containing 0.1 vol. of 3.8% sodium citrate and prepared platelet rich plasma (PRP).
To the […] of PRP, 5 µl of arachidonic acid (final 50 µM) was added as an aggregation inducer. Aggregation was measured by using an aggregometer (NKK HEMA-TRACER 1).

[3] = tested on: isolated rat aorta; assay: Relaxation effect on isolated rat aorta (KCl-induced contraction); conditions: dose required to relax the isolated rat aorta by 50%; contraction induced by KCl 30 mM; maximum relaxation by 10⁻⁴M papaverine; read-out: ED₅₀
Procedure: Helical strip of rat thoracic aorta was suspended in the organ bath containing Tyrode solution gassed with 95% O₂ - 5% CO₂ at 37°C under 0.5 g load. Contraction was induced by addition of KCℓ solution (final concentration was 30 mM). […] Activities of the test compound were expressed as ED₅₀ values i.e. doses required to relax the isolated rat aorta by 50%.

[4] = molecular target: T1, cyclooxygenase (Oryctolagus cuniculus, UniProt O97554); assay: Effect on malondialdehyde (MDA) production in rabbit platelets; format: cell-based; conditions: dose required to inhibit the production of malondialdehyde by 50%; washed rabbit PRP, arachidonic acid added; read-out: IC₅₀
T1 construct: Washed rabbit PRP (900 µl) was preincubated with drug solution; endogenous in cells; host or cells: washed rabbit platelets (PRP)
T1 sequence (O97554 31-606): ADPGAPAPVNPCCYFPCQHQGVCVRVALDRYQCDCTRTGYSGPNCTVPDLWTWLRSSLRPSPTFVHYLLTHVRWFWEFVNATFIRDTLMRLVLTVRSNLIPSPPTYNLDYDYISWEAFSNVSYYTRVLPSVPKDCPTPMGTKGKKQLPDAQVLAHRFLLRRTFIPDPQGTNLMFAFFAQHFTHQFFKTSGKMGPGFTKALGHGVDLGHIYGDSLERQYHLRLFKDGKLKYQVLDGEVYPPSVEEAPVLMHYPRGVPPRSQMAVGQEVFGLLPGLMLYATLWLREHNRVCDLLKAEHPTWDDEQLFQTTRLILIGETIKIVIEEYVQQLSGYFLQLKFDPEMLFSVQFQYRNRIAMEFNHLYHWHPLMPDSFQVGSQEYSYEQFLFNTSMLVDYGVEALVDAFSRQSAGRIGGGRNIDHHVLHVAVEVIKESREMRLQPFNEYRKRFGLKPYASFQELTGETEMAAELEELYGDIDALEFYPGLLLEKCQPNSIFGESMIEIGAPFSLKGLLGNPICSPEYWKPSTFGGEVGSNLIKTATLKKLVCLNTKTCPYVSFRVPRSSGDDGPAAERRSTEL
Procedure: Washed rabbit PRP (900 µl) was preincubated with drug solution (dissolved in dimethyl sulfoxide) (100 µl) at 37°C for 5 minutes. Then, 2.5 mM arachidonic acid solution (20 µl) was added to the reaction mixture. After 3 minutes, thiobarbiturate reagent (1000 µl) was added, and the reaction mixture was heated in a boiled water. After centrifugation at 1500 g for 10 minutes, the absorbance of suparnatant was measured at 532 nm. This test was carried out to see inhibitory activity of the test compound against the activity of cyclooxygenase. Activity of the test compound was expressed as IC₅₀ values i.e. doses required to inhibit the production of malondialdehyde by 50%.

SMILES: CNC(=O)NCc1nc(-c2ccc(OC)cc2)c(-c2ccc(OC)cc2)s1 [Example 24, 4,5-Bis(4-methoxyphenyl)-2-(3-methylureidomethyl)thiazole]
Inhibition of the aggregation (%) [1]: 71.3%

SMILES: COc1ccc(-c2nc(CNC(=O)C3=NNC(=O)CC3)sc2-c2ccc(OC)cc2)cc1 [Example 15, 4,5-bis(4-methoxyphenyl)-2-{(6-oxo-1,4,5,6-tetrahydropyridazin-3-yl)carbonyiaminomethyl}thiazole]
inhibition at 1 mg/kg [2]: 100%
EC50 [3]: 7.3 µM

EC50 [3]: 8.2 µM
SMILES: COc1ccc(-c2nc(CNC(=O)c3cccnc3)sc2-c2ccc(OC)cc2)cc1 [Example 19, 4,5-bis(4-methoxyphenyl)-2-(nicotinoylaminomethyl)thiazole hydrochloride]

IC50 [4]: 0.015 µM
SMILES: COc1ccc(-c2nc(CNC(C)=O)sc2-c2ccc(OC)cc2)cc1 [Example 1, 2-acetylaminomethyl-4,5-bis(4-methoxyphenyl)thiazole]
